# Test results as given in patent US10143720B2, “Modulation of hepatitis B virus cccDNA transcription” (DREXEL UNIVERSITY, priority 2012, dated 2018).
# “Also recorded” adds a separate entry of the source. Like-named read-outs stand apart in the source and are kept apart here. Where a SMILES comes first, the peptide text is derived from it. [ ]: non-standard residue; d: D form. β3hL = CC(C)C[C@H](N)CC(=O)O; Nva = CCC[C@H](N)C(=O)O
# Experiments:
# HBV cccDNA [1] = test: cccDNA-dependent DHBV pgRNA / cccDNA transcription in dstet5 cells; type: cell-based; conditions: for cccDNA transcription: Dstet5 cells; for Selectivity Index (SI): CC50 divided by EC50
# Description: Most HBV producing cells lines produce HBV gene products from an HBV transgene integrated into the host chromosome, and thus cccDNA is not the major source of viral product. This makes screening for drugs that target cccDNA difficult. Cell lines were produced in which viral gene products are dependent upon cccDNA. It was established human Hep G2 and chicken hepatoma (LMH)-stable cell lines for this purpose with tetracycline (tet) regulated HBV/DHBV. […] Upon addition of tet back to media to block transgene transcription, and removal of PFA to allow the viral DNA synthesis in the pgRNA-containing capsid to proceed, there is a rapid decline of viral RNA (day 1 and 2), with an eventual increase to a higher level when cccDNA is made after day 3.
# With a system and conditions under which viral transcripts are produced in a cccDNA dependent manner (FIGS. 1, 2B), approximately 100 compounds were screened, including those from the inventors' in-house small compound library, those present in the inventors' Natural Products collection, and selected compounds including inhibitors of cellular epigenetic modification enzymes, including HDACs, HATs, Sirtuins, histone methyltransferases, histone demethylases and DNA methyltransferases.
# dstet5 cells = test: Toxicity on dstet5 cells; type: cell-based, chicken
# HBV cccDNA [2] = test: HBV cccDNA transcription in HepG2 cells; type: cell-based, HBV in human HepG2 cells
# [3] = test system: DHBV transgene integrated in host cellular chromosome; test: DHBV pgRNA transcription from transgene integrated in host cellular chromosome (FIG. 4); type: cell-based
# HDAC-I = conditions: cited from earlier work; for HDAC-I inhibitor?: from cited references; for activity against class I HDACs: in words
# [4] = cited from earlier work
# [5] = cited from earlier work; remark: listed apart in the source
# Toxicity on dstet5 cells = type: cell-based, chicken; conditions: chicken; dstet5 cells; concentration that reduces 50% of cell viability
# HDAC-II = conditions: cited from earlier work; for HDAC-II inhibitor?: from cited references
# HDAC III = conditions: cited from earlier work; for HDAC III inhibitor (printed in the HDAC-II inhibitor line): from cited references
# HDAC = conditions: relative to Apicidin; cited from earlier work
# DHBV = test: Duck hepadnavirus efficacy study; type: in vivo, Peking Ducks; conditions: by 3 weeks of treatment, expected
# Description: Six-week-old Peking Ducks, chronically infected with DHBV type 16 (Alberta Strain), are used. At 6 weeks, viremia and liver mass in ducks tends to have stabilized. Ducks are given, by either i.m. or oral gavage (depending on Aim 4 PK/TK results), test compound (3 dose groups, with dosing amount and frequency to depend on PK results, but aiming to achieve stable serum levels of at least 10 times the tissue culture IC50). There are three dose groups with 5-6 animals per dose group. Control dose groups (6 animals each group) include placebo treated animals and animals treated with either barraclude (1 mg/kg) or lamivudine (40 mg/kg) per day. At least three animals from all dose groups contribute at least one pre treatment and one post treatment liver biopsy. Treatment is for 10 weeks, since this exceeds the time for lamivudine to suppress viremia to beneath detectable levels and the reported ½ life of cccDNA in the duck. Ducks are followed with weekly serum collections for an additional 4 weeks after withdrawal of drug. Serum will be collected weekly.
# Weekly serum is tested for standard “lab values” (hematology, albumin, AST, ALTs, The amount of DHBV viral DNA, sAg, sAb in the circulation is determined. Liver tissue derived from biopsies (some pre treatment and end of treatment from the same animals) is examined for DHBV DNA (cccDNA, replicative forms) and DHBV core (immunostained). […]
# WHV = test: WHV-infected woodchuck study; type: in vivo; conditions: by 10 weeks of treatment, expected
# Description: The study uses 10 groups, with 5 animals per group, with drug treatment for 10 weeks followed by 10 weeks off drug (to test durability of affect). Due to variability in the levels of viremia and antigenemia, animals are stratified to groups by WHV viremia and antigenemia levels as determined seven days prior to study start, so that the average levels of both viral markers are evenly distributed among all groups of animals. Animals with abnormally low WHVsAg levels are not used in this study. Compound is administered daily, by a route and frequency to be finalized after bioavailability studies in rodents. The first day of dosing on the study is Study Day 1. Study Day 1 dose levels are calculated on a pretest body weight, and body weights are taken weekly for dose administration. Dosing range is as for the mouse study over four doses, with Group 10 treated with Barraclude as a reference compound (Tennant).
# The primary endpoint is a dose dependent reduction in viremia and antigenemia on and off drug achieving durable off drug reductions.
# The benchmark of positive activity is LFMAU treated animals.
# cccDNA = conditions: positive drug control; from our screen, Guo 2012; cited from earlier work
# [6] = in Gallus gallus, read-out: HBV cccDNA (EC50, uM)
smiles,measurement,setting,value
"CCC(=O)CCCCC[C@@H]1NC(=O)[C@H]2CCCCN2C(=O)[C@H]([C@@H](C)CC)NC(=O)[C@H](Cc2cn(OC)c3ccccc23)NC1=O [Apicidin, cyclo(N—O-methyl-L-tryptophanyl-L-isoleucinyl-D-pipecolinyl-L-2-amino-8-oxodecanoyl)]","activity against the DHBV, in culture",HBV cccDNA [1],highly active
same,cccDNA transcription,HBV cccDNA [1]; FIG. 3,repress
same,EC50,"HBV cccDNA [1]; FIG. 3, read-out: inhibition of cccDNA, EC50",~0.18 µM
same,EC50,"HBV cccDNA [1]; dstet5 system, concentration that reduces 50% of the HBV specific signal (RNA and/or HBeAg), read-out: HBV cccDNA (EC50)",0.183 µM
same,toxicity,dstet5 cells; at up to 20 uM for five days,no toxicity
same,CC50,"dstet5 cells; dstet5 cells, concentration that reduces 50% of cell viability",> 20000 nM
same,HBV cccDNA transcription,HBV cccDNA [2],repress
same,cccDNA levels,HBV cccDNA [2],reduced
same,DHBV pgRNA transcription from transgene integrated in host cellular chromosome,[3],dose-dependently stimulate
same,HDAC-I inhibitor?,HDAC-I,"YES^4,5"
same,activity against class I HDACs,HDAC-I,nanomolar activity; also recorded: efficiently inhibits
same,aqueous solubility,[4],very poor
same,half life in vivo,[5],very poor
same,oral bioavailability,"[5]; in vivo, po",very poor
"O=C(CCCCCCC(=O)NO)NO [Suberoyl bis hydroxamic acid (SBHA), Suberoyl bis hydroxamic acid]",Selectivity Index (SI),HBV cccDNA [1],>16
same,EC50,HBV cccDNA [1]; [6],2.5 µM
same,CC50,Toxicity on dstet5 cells,> 40000 nM
same,HDAC-I inhibitor?,HDAC-I,"YES^4,6,7,10"
same,HDAC-II inhibitor?,HDAC-II,YES &
same,HDAC III inhibitor (printed in the HDAC-II inhibitor line),HDAC III,HDAC III^11
CC(/C=C/C(=O)NO)=C\[C@@H](C)C(=O)c1ccc(N(C)C)cc1 [Trichostatin A],Selectivity Index (SI),HBV cccDNA [1],>40
same,cccDNA transcription,HBV cccDNA [1]; FIG. 3,repress
same,EC50,HBV cccDNA [1]; [6],0.48 µM
same,CC50,Toxicity on dstet5 cells,> 20000 nM
same,HBV cccDNA transcription,HBV cccDNA [2],repress
same,cccDNA levels,HBV cccDNA [2],reduced
same,DHBV pgRNA transcription from transgene integrated in host cellular chromosome,[3],dose-dependently stimulate
same,HDAC-I inhibitor?,HDAC-I,"YES^5,6,9"
same,activity against class I HDACs,HDAC-I,inhibited
same,HDAC-II inhibitor?,HDAC-II,"YES^4,5,6,9"
same,activity against class II HDACs,HDAC-II; in words,inhibited
same,effect on class III HDACs (sirtuins),HDAC III; in words,not affected
CCC[C@@H]1NC(=O)[C@H](C)NC(=O)C[C@H](CC(C)C)NC(=O)[C@H](Cc2c[nH]c3ccccc23)NC1=O [analog 2] (cyclo(A[Nva]W[β3hL])),anti HDAC potency,HDAC,without loss of anti HDAC potency
Cc1cn([C@H]2O[C@@H](CO)[C@H](O)[C@H]2F)c(=O)[nH]c1=O [LFMAU],HBV viremia and antigenemia,DHBV,uniformly lost HBV viremia and even antigenemia
same,HBV viremia and antigenemia,WHV,uniformly lost HBV viremia and even antigenemia
CCC(=O)CCCCC[C@@H]1NC(=O)Cn2cc(nn2)[C@H](C(C)CC)NC(=O)[C@H](Cc2c[nH]c3ccccc23)NC1=O (stereo partly shown) [analog 1],anti HDAC potency,HDAC,without loss of anti HDAC potency
CN(C)c1ccc(C(=O)NCCCCCCC(=O)NO)cc1 [4-(dimethylamino)-N-[7-(hydroxyamino)-7-oxoheptyl] benzamide],Selectivity Index (SI),HBV cccDNA [1],>16
same,EC50,HBV cccDNA [1]; [6],6.25 µM
same,CC50,Toxicity on dstet5 cells,> 100000 nM
same,HDAC-I inhibitor?,HDAC-I,"YES^4,7"
same,HDAC-II inhibitor?,HDAC-II,YES &
same,HDAC III inhibitor (printed in the HDAC-II inhibitor line),HDAC III,"HDAC III^7,11"
O=C(CN(c1cc(C(F)(F)F)ccc1Cl)S(=O)(=O)c1ccccc1)NCc1ccncc1 [CCC-0975],cccDNA formation,cccDNA,inhibits
